We go through three molecules from patent US11160796B2, “Anti-androgens for the treatment of non-metastatic castration-resistant prostate cancer” (priority 2017, dated 2021).

The subject of series [1] is BCRP, OATP1B1, and OATP1B3. As to the kind of experiment: In vitro transporter substrate assessment: BCRP, OATP1B1, OATP1B3.
The nature of series [2]: Preclinical pharmacokinetic profile. In kind it is in vivo. The settings on record: relative to apalutamide.
Series [3] concerns plasma proteins. As to the kind of experiment: Plasma protein binding. Particulars: no concentration dependency.
Series [4] is described as follows: Single oral administration of 14C-labeled apalutamide 240 mg (metabolite profile, excretion).
Series [5] has as its system human CYP2B6 and CYP3A4. Kind of series: CYP induction in vitro (hepatocytes).
For series [6], the system named is organic cation transporter 2 (OCT2), organic anion transporter 3 (OAT3) and multidrug and toxin extrusions (MATEs). Kind of series: In vitro transporter inhibition: OCT2, OAT3, MATEs. The format is in vitro ADME.
Series [7] has as its system CYP1A2 and CYP2D6. Kind of series: In vitro effect on CYP1A2 and CYP2D6. Particulars: therapeutically relevant concentrations.
For series [8] the following is noted: human, in vivo.
The target in series [9] is T1, organic anion transporter 1 (OAT1) (Homo sapiens, UniProt Q4U2R8).
T1 sequence (Q4U2R8 1-563): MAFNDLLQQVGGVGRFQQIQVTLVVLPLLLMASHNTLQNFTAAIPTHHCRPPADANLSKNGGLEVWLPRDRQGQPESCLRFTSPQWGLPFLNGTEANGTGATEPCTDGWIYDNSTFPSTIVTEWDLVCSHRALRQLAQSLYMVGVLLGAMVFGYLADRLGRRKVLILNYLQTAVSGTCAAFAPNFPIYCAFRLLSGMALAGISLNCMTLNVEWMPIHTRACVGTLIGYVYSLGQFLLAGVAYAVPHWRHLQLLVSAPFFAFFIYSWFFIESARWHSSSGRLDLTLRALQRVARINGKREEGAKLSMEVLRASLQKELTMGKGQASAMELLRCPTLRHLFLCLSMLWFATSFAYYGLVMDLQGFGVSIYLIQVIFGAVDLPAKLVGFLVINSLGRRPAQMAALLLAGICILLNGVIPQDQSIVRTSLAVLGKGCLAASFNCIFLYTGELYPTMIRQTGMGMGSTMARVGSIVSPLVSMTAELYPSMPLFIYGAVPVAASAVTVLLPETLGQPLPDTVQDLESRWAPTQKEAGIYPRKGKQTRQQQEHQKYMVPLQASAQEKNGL
As to the kind of experiment: In vitro transporter inhibition: OAT1.

The test system of series [10] is CYP2C9, CYP2C19, and CYP3A4. As to the kind of experiment: In vitro CYP inhibition: CYP2C9, CYP2C19, CYP3A4.
Series [11] has as its target P-gp (Homo sapiens, UniProt P08183). Kind of series: In vitro transporter substrate assessment: P-gp.
In series [12] the test system is CYP2B6 and CYP2C8. Kind of series: In vitro CYP inhibition: CYP2B6 and CYP2C8.
The conditions of series [13]: human, in vivo, po, 240 mg.
In series [14] the target is androgen receptor (AR) (Homo sapiens, UniProt P10275). The settings on record: cited from earlier work.
androgen receptor (AR), sequence (P10275 whole entry): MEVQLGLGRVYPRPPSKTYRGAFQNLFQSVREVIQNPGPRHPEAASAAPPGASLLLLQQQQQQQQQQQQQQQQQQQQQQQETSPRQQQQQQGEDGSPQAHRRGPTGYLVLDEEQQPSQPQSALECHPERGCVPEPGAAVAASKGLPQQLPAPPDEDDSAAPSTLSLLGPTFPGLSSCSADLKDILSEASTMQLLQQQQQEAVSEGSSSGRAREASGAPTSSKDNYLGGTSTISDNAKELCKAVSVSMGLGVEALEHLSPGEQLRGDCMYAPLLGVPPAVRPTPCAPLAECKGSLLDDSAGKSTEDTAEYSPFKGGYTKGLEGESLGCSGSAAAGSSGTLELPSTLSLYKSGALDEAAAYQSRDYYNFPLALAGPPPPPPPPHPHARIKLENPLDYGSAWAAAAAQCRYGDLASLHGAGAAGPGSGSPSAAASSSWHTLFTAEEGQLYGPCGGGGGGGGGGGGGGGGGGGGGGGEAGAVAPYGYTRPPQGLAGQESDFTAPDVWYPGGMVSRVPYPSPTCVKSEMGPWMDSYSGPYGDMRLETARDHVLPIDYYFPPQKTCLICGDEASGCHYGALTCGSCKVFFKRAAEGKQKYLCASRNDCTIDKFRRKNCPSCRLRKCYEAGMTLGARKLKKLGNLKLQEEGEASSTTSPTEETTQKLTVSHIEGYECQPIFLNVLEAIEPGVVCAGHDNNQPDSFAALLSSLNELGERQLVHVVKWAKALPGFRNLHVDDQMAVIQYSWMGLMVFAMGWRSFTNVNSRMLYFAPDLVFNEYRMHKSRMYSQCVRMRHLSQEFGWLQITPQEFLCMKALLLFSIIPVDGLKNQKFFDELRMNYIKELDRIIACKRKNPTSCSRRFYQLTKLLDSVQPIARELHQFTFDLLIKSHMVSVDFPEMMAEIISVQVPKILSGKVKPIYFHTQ
The mark [15] stands for this setting: listed as N-desmethyl metabolite.

Like-named read-outs stand apart in the source and are kept apart here.

P-gp, sequence (P08183 whole entry): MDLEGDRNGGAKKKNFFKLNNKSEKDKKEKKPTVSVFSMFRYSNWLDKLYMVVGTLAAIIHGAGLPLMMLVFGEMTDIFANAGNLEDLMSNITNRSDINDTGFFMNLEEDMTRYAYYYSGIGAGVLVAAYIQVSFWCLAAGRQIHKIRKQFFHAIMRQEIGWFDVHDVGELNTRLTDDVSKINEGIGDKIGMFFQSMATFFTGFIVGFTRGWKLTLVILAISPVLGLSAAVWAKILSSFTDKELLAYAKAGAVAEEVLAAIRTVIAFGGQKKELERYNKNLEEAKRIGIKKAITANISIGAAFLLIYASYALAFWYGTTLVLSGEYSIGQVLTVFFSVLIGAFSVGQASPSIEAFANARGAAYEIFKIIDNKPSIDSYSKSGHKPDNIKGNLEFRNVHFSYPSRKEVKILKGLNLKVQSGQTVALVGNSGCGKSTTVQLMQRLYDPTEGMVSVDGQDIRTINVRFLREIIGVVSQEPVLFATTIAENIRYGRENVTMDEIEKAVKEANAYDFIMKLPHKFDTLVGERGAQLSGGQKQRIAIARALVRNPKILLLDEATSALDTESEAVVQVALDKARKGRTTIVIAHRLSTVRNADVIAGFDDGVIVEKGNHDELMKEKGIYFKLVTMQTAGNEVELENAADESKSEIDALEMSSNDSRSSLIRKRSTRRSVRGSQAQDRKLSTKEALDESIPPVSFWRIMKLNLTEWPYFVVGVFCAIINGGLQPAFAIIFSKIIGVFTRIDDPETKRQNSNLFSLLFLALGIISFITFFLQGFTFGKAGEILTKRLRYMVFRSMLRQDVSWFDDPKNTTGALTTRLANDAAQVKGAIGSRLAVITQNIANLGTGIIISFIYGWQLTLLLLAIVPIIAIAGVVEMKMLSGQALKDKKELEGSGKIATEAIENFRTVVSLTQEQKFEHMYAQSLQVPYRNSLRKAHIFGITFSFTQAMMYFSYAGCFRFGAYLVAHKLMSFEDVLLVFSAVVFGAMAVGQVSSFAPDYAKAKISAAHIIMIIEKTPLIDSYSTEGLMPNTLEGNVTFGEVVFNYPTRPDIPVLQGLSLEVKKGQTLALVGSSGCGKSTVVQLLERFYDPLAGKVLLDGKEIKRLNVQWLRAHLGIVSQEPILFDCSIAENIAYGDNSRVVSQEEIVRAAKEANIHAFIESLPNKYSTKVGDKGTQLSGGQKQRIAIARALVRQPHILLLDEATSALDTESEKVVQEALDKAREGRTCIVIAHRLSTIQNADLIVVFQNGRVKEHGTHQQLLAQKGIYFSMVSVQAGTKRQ

With N-desmethyl apalutamide, the “substrate for BCRP, OATP1B1, and OATP1B3” value in series [1] was “not BCRP, OATP1B1, and OATP1B3”. Moreover, the elimination half-life entry in [2] is listed as “longer elimination half-life than apalutamide”. The “bound to plasma proteins” value in series [3] came to 95%. Further, the “share of the total 14C-AUC in plasma” value in [4] (single oral 240 mg) was 44%. In series [4] (up to 70 days), the “% of dose in feces as this compound” value is listed as 2% and the “% of dose in urine as this compound” value turned out to be 2.7%. Also, the “induction of human CYP2B6 and CYP3A4 in hepatocytes” value in series [5] (concentrations up to 30 μM) is given as “inducers”. Moreover, the “CYP3A4 and CYP2B6 induction” value in series [5] (in vitro studies) is “moderate to strong CYP3A4 and CYP2B6 inducers”. For the same molecule, in [6], the “inhibition of OCT2, OAT3 and MATEs” value is given as “inhibit”. In addition, the “inhibition of OCT2, OAT3 and MATEs” value in series [6] (setting [15]) is recorded as “cannot be excluded”. The “effect on CYP1A2 and CYP2D6” value in series [7] is recorded as “do not affect”. Moreover, in [8], the “AUC at steady-state, mean” value amounted to 124 µg·h/mL; the “Cmax at steady-state, mean” value stood at 5900 ng/mL; the “differences in pharmacokinetics in specific populations” value is on record as “No clinically significant differences”. Moreover, in series [8] (240 mg), the AUC at steady-state, mean worked out at 124 µg·h/mL and the “Cmax at steady-state, mean” value came out at 5900 ng/mL. Besides, the “inhibition of OAT1” value in series [9] is recorded as “do not inhibit”. Further, the “inhibition of OAT1” value in series [9] (setting [15]) is listed as “No in vitro inhibition”. Besides, the “inhibition of CYP2C9, CYP2C19, and CYP3A4” value in series [10] is given as “weak inhibitors”. The “substrate for P-gp” value in [11] is on record as “substrates for P-gp”. For the same molecule, in series [12], the “inhibition of CYP2B6 and CYP2C8” value was “moderate inhibitors”.

For the molecule `N#Cc1ncc(N2C(=O)C3(CCC3)N(c3ccc(C(=O)O)c(F)c3)C2=S)cc1C(F)(F)F` [inactive carboxylic acid metabolite], the “share of the total 14C-AUC in plasma” value in series [13] is given as 3%.

In the case of `CC(O)c1cc(C(=O)N[C@@H](C)Cn2ccc(-c3ccc(C#N)c(Cl)c3)n2)[nH]n1` (some centres unmarked) [Darolutamide], in [14], the “binding affinity to AR” value was “high affinity”.
